These results are taken from ChEMBL document CHEMBL5608172, “Structural modification strategies of triazoles in anticancer drug development” (Eur J Med Chem, 2024).

Molecules are shown by their SMILES.

For series [1], the system named is SGC-7901. Put plainly: Antiproliferative activity against human SGC-7901 cells. It counts as functional, cell-based.
Series [2] concerns A549. Briefly: Antiproliferative activity against human A549 cells assessed as reduction in cell growth incubated for 72 hrs by MTT assay. It counts as functional, cell-based. Particulars: A549, 72 h.
Series [3] deals with HCT-116. Put plainly: Cytotoxicity against human HCT-116 cells assessed as reduction in cell viability measured after 48 hrs by MTT assay. It counts as functional, cell-based. Particulars: HCT-116, 48 h. A general note: Formazan colour is commonly taken as a measure of viable cells.
Series [4] concerns SW-620. Put plainly: Antiproliferative activity against human SW620 cells assessed as inhibition of cell growth measured after 72 hrs by MTT assay. It counts as functional, cell-based. The conditions noted are these: SW-620, 72 h.
The subject of series [5] is HCT-116. Put plainly: Cytotoxicity against human HCT-116 cells assessed as reduction in cell viability incubated for 24 hrs by MTT assay. It counts as functional, cell-based. The conditions noted are these: HCT-116, 24 h.
Series [6] concerns BT-474. Briefly: Antiproliferative activity against human BT-474 cells assessed as inhibition of cell growth measured after 72 hrs by MTT assay. The conditions noted are these: BT-474, 72 h. It counts as functional, cell-based.
The test system of series [7] is MCF7. Briefly: Cytotoxicity against human MCF7 cells assessed as reduction in cell growth incubated for 24 hrs by MTT assay. Particulars: MCF7, 24 h. It counts as functional, cell-based.
The subject of series [8] is T47D. Put plainly: Cytotoxicity against human T47D cells assessed as reduction in cell growth incubated for 24 hrs by MTT assay. It counts as functional, cell-based.
The subject of series [9] is SNB-19. Briefly: Cytotoxicity against human SNB-19 cells assessed as reduction in cell growth incubated for 24 hrs by MTT assay. The class given is functional, cell-based. The conditions noted are these: SNB-19, 24 h.
For series [10], the system named is PC-3. Put plainly: Antiproliferative activity against human PC-3 cells assessed as reduction in cell viability incubated for 72 hrs by MTT assay. The class given is functional, cell-based. The conditions noted are these: PC-3, 72 h.
The test system of series [11] is K562. Briefly: Antiproliferative activity against human K562 cells assessed as reduction in cell viability incubated for 72 hrs by MTT assay. It counts as functional, cell-based. The conditions noted are these: K562, 72 h.
In series [12] the test system is K562. Put plainly: Cytotoxicity against human K562 cells assessed as reduction in cell growth incubated for 72 hrs by MTT assay. Particulars: K562, 72 h. The class given is functional, cell-based.
The test system of series [13] is PC-3. Briefly: Cytotoxicity against human PC-3 cells assessed as reduction in cell growth incubated for 72 hrs by MTT assay. The class given is functional, cell-based. Particulars: PC-3, 72 h.
Series [14] concerns HCT-116. Put plainly: Anticancer activity against human HCT-116 cells assessed as reduction in cell viability incubated for 48 hrs by MTT assay. The class given is functional, cell-based. Particulars: HCT-116, 48 h.
For series [15], the system named is MCF7. Put plainly: Anticancer activity against human MCF7 cells assessed as reduction in cell viability incubated for 48 hrs by MTT assay. It counts as functional, cell-based. Particulars: MCF7, 48 h.
Series [16] deals with HCT-116. Put plainly: Cytotoxicity against human HCT-116 cells assessed as reduction in cell growth incubated for 24 hrs by MTT assay. It counts as functional, cell-based. The conditions noted are these: HCT-116, 24 h.
Series [17] concerns Huh-7. Put plainly: Cytotoxicity against human Huh-7 cells assessed as cell growth inhibition incubated for 72 hrs by SRB assay. It counts as functional, cell-based. Particulars: Huh-7, 72 h. For orientation: Sulforhodamine B stains cellular protein and so reports cell mass.
For series [18], the system named is HeLa. Put plainly: Cytotoxicity against human HeLa cells by MTT assay. It counts as functional, cell-based.
Series [19] relates to PC-3. Briefly: Cytotoxicity against human PC-3 cells assessed as reduction in cell growth incubated for 3 days by MTT assay. The class given is functional, cell-based. The conditions noted are these: PC-3, 72 h.
Series [20] concerns A549. Briefly: Antiproliferative activity against human A549 cells assessed as reduction in cell viability incubated for 48 hrs by MTT assay. Particulars: A549, 48 h. It counts as toxicity, cell-based.
Series [21] is described as follows: Antiproliferative activity against human WS1 cells assessed as reduction in cell viability incubated for 48 hrs by MTT assay. The class given is toxicity, cell-based.
Series [22] deals with MCF7. Briefly: Antiproliferative activity against human MCF7 cells assessed as inhibition of cell growth measured after 72 hrs by MTT assay. The class given is functional, cell-based. The conditions noted are these: MCF7, 72 h.
For series [23], the system named is PC-3. Briefly: Cytotoxicity against human PC-3 cells assessed as reduction in cell growth incubated for 48 hrs by MTT assay. It counts as functional, cell-based. Particulars: PC-3, 48 h.
The subject of series [24] is MCF7. Put plainly: Antiproliferative activity against human MCF7 cells assessed as reduction in cell viability incubated for 24 hrs by SRB assay. The conditions noted are these: MCF7, 24 h. It counts as functional, cell-based.
In series [25] the test system is CCRF-CEM. Put plainly: Antiproliferative activity against human CCRF-CEM cells. The class given is functional, cell-based.
The subject of series [26] is HeLa. Briefly: Anticancer activity against human HeLa cells assessed as reduction in cell viability by MTT assay. The class given is functional, cell-based.
Series [27] has as its system A549. Put plainly: Anticancer activity against human A549 cells assessed as reduction in cell viability by MTT assay. It counts as functional, cell-based.

The term IC50 denotes the midpoint of a concentration-inhibition curve. In series [1], `CC1(C)CC[C@]23CC[C@]4(C)[C@H](CC[C@@H]5[C@@]6(C)CC[C@H](O)C(C)(C)[C@@H]6CC[C@]54C)[C@H]2[C@H]1OC3` [ALLOBETULIN] registered an IC50 of 52.2 µM.
With `COc1ccc(/C=C\c2cc(OC)c(OC)c(OC)c2)cc1O` [COMBRETASTATIN A4], the IC50 in series [2] worked out at 40 nM.
As for `CC(=O)O[C@@H]1O[C@H](Cn2cc(COc3cccc4cccnc34)nn2)[C@@H](OC(C)=O)[C@H](OC(C)=O)[C@H]1OC(C)=O`, the IC50 in [3] turned out to be 22.3 µM.
As to `c1ccc(-n2cc(-c3nc4ccc(C5=NCCN5)cc4s3)nn2)cc1`, the IC50 in series [4] came out at 250 nM.
`O=c1oc2ccccc2c2c1cnn2Cc1cn(-c2ccc(Cl)cc2)nn1`: the IC50 in series [5] is 20.2 µM.
With `COc1ccc(Cn2cc(Cn3c(=O)c(-c4nc5ccccc5[nH]4)cc4ccccc43)nn2)c(OC)c1OC`, the IC50 in [6] stood at 590 nM.
On to `C=C(C)[C@@H]1CC[C@]2(COC(=O)c3cn(Cc4ccc(F)cc4)nn3)CC[C@]3(C)[C@H](CC[C@@H]4[C@@]5(C)CC[C@H](OC(=O)c6cnnn6Cc6ccc(F)cc6)C(C)(C)[C@@H]5CC[C@]43C)[C@@H]12`, for which the IC50 in [7] worked out at 90 nM; in series [8], 50 nM; in [9], 80 nM.
For the molecule `CC(C)(C)c1ccc(-c2cn(Cc3cc4c(o3)-c3ccccc3C(=O)C4=O)nn2)cc1`, the results for the IC50 in series [10] and in series [11] were 1400 nM and 900 nM, respectively.
Take `Cc1coc2c1C(=O)C(=O)c1c-2ccc2c1CCCC2(C)C` [TANSHINONE IIA]: the figures for the IC50 in series [12] and in [13] were 4.6 µM and 3.2 µM, respectively.
`CN(C)c1ccc(/C=N/c2nnc(S[C@@H]3O[C@H](CO)[C@@H](O)[C@H](O)[C@H]3O)s2)cc1`: the IC50 in series [14] turned out to be 12.1 µM; in series [15], 17.3 µM.
As for `C=C(C)[C@@H]1CC[C@]2(COC(C)=O)CC[C@]3(C)[C@H](CC[C@@H]4[C@@]5(C)Cc6nn(C(C)=O)nc6C(C)(C)[C@@H]5CC[C@]43C)[C@@H]12`, in series [16], the half-inhibitory concentration (IC50) stood at 22.5 µM.
Regarding `Cc1ccc(Cn2cc(Cn3c(Cl)cc(=O)n(C)c3=O)nn2)cc1`, the IC50 in series [17] came out at 7.7 µM; in series [18], 4.5 µM.
On to `Cc1nn(-c2ccc(S(N)(=O)=O)cc2)c(N)c1-c1nnc(SC/C(=N\O)c2ccccc2)n1-c1ccccc1`, for which the IC50 in series [19] is 330 nM.
With `CC(=O)O[C@@H]1O[C@H](Cn2cc(COc3cccc4cccnc34)nn2)[C@H](OC(C)=O)[C@H](OC(C)=O)[C@H]1OC(C)=O`, the half-maximal inhibitory concentration (IC50) in series [3] turned out to be 10.8 µM.
In the case of `Cc1ccc(-n2ncc(CN3C(=O)C(F)(F)c4cc(Br)ccc43)n2)cc1Nc1nccc(-c2cccnc2)n1`, the IC50 in [20] was determined as 7.3 µM. The IC50 at 48 h in series [21] came out at 18.6 µM.
For `COc1cc([N+](=O)[O-])ccc1-n1cc(CN2C(=O)S/C(=C\c3cn(-c4ccccc4)nc3-c3ccccc3)C2=O)nn1`, the IC50 in [22] was determined as 430 nM.
`NC(=S)N/N=C1/C(=O)N(Cc2cn(CC(=O)c3ccc(Br)cc3)nn2)c2ccccc21`: the IC50 in [23] was determined as 15.3 µM.
On to `CC(=O)OC[C@H]1OC(n2cc(COc3cccc4cccnc34)nn2)[C@@H](OC(C)=O)[C@H](OC(C)=O)[C@H]1OC(C)=O` (stereo partly specified), for which the IC50 in series [24] was 4.12 µM.
`COc1cc(/C=C/C(=O)CC(=O)/C=C/c2ccc(O)c(OC)c2)ccc1O` [CURCUMIN] gave an IC50 in series [25] of 10.5 µM.
Regarding `O=C1C(=O)c2cc(Cn3cc(-c4ccccc4)nn3)oc2-c2ccccc21`, the IC50 in series [10] is 1400 nM; in [11], 1300 nM.
With `C=C(C)[C@@H]1CC[C@]2(CO)CC[C@]3(C)[C@H](CC[C@@H]4[C@@]5(C)Cc6nn(C(C)=O)nc6C(C)(C)[C@@H]5CC[C@]43C)[C@@H]12`, in series [16], the IC50 amounted to 5.67 µM.
As to `O=Cc1cc(Cc2ccc3oc(C(=O)c4ccc(Cl)cc4)cc3c2)ccc1OCc1cn(-c2ccccc2C(F)(F)F)nn1`, the IC50 was 29.1 nM in [26] and 40.4 nM in series [27].
